Test results taken from US8785488B2 (Exelixis Patent Company LLC, priority 2009, dated 2014).

The compounds below were run against T1, human TGR5 (h-TGR5) (Homo sapiens, UniProt Q8TDU6) (assay: TGR5/CRE-Luciferiase Assay (HEK 293 hTGR5/CRE-Luc cells)). Conditions: h-TGR5 CRE-Luc EC50, Table 1; read-out: CRE-Luc (EC50).
T1 construct: expressed in transfected cells
T1 sequence (Q8TDU6 1-330): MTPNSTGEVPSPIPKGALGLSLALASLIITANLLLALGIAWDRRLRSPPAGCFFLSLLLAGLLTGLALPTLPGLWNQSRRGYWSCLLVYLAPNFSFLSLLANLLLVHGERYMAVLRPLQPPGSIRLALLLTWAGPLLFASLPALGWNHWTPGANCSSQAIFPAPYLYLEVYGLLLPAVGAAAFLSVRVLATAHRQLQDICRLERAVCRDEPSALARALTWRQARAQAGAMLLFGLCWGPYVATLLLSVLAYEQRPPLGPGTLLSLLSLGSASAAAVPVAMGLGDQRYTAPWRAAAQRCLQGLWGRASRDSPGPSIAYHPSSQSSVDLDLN
Assay type: cell-based
In short: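 HEK293 cells stably carrying hTGR5 and a CRE-luciferase reporter were exposed to serially diluted compounds (diluted in DMEM with 5% DMSO) for 6 h. Cells were then lysed in luciferase buffer, luminescence was read, and EC50 values were derived from dose-response curves.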

Row | EC50 [nM] | SMILES
1 | 100 to 1000 | CC(C)(c1ccc(Cl)c(Cl)c1)c1cnc(SCc2cc(S(N)(=O)=O)ccc2Cl)n1-c1ccc(F)cc1 [4-chloro-3-[({5-[1-(3,4-dichlorophenyl)-1-methylethyl]-1-(4-fluorophenyl)-1H-imidazol-2-yl}thio)methyl]benzenesulfonamide]
2 | < 100 | CC(C)(c1ccc(Cl)c(Cl)c1)c1cnc(SCc2cc(C#N)ccc2Cl)n1-c1ccc(F)cc1 [4-chloro-3-[({5-[1-(3,4-dichlorophenyl)-1-methylethyl]-1-(4-fluorophenyl)-1H-imidazol-2-yl}thio)methyl]benzonitrile]
3 | 100 to 1000 | CNS(=O)(=O)c1ccc(C(C)(C)c2cnc(SCc3ccc(F)cc3Cl)n2-c2ccc(F)cc2)cc1 [4-{1-[2-{[(2-chloro-4-fluorophenyl)methyl]thio}-1-(4-fluorophenyl)-1H-imidazol-5-yl]-1-methylethyl}-N-methylbenzenesulfonamide]
4 | < 100 | CC(C)(c1ccc(O)c(O)c1)c1cnc(SCc2ccc(F)cc2Cl)n1-c1ccc(F)cc1 [4-{1-[2-{[(2-chloro-4-fluorophenyl)methyl]thio}-1-(4-fluorophenyl)-1H-imidazol-5-yl]-1-methylethyl}benzene-1,2-diol]
5 | 100 to 1000 | CC(C)(c1ccc(Cl)c(OCCN2CCOCC2)c1)c1cnc(SCc2c(F)cccc2Cl)n1-c1ccc(F)cc1 [4-{2-[(2-chloro-5-{1-[2-{[(2-chloro-6-fluorophenyl)methyl]thio}-1-(4-fluorophenyl)-1H-imidazol-5-yl]-1-methylethyl}phenyl)oxy]ethyl}morpholine]
6 | 1000 to 10000 | CC(C)(c1ccc(Cl)c(Cl)c1)c1cnc(C2=CCN(S(C)(=O)=O)CC2)n1-c1ccc(F)cc1 [4-{5-[1-(3,4-dichlorophenyl)-1-methylethyl]-1-(4-fluorophenyl)-1H-imidazol-2-yl}-1-(methylsulfonyl)-1,2,3,6-tetrahydropyridine]
7 | 1000 to 10000 | CC(C)(c1ccc(Cl)c(Cl)c1)c1cnc(C2CCN(S(C)(=O)=O)CC2)n1-c1ccc(F)cc1 [4-{5-[1-(3,4-dichlorophenyl)-1-methylethyl]-1-(4-fluorophenyl)-1H-imidazol-2-yl}-1-(methylsulfonyl)piperidine]
8 | 1000 to 10000 | CC(C)(c1ccc(Cl)c(Cl)c1)c1cnc(C2CCN(C(=O)NN3CCCC3)CC2)n1-c1ccc(F)cc1 [4-{5-[1-(3,4-dichlorophenyl)-1-methylethyl]-1-(4-fluorophenyl)-1H-imidazol-2-yl}-N-pyrrolidin-1-ylpiperidine-1-carboxamide]
9 | 1000 to 10000 | COc1ccc(C(C)(C)c2cnc(C(=O)N3CCOCC3)n2-c2ccc(F)cc2)cc1OC [4-{[5-{1-[3,4-bis(methyloxy)phenyl]-1-methylethyl}-1-(4-fluorophenyl)-1H-imidazol-2-yl]carbonyl}morpholine]
10 | 1000 to 10000 | CC(C)(c1ccc(Cl)c(Cl)c1)c1nc(CSc2ccc(F)cc2Cl)cn1-c1ccc(F)cc1 [4-{[(2-chloro-4-fluorophenyl)thio]methyl}-2-[1-(3,4-dichlorophenyl)-1-methylethyl]-1-(4-fluorophenyl)-1H-imidazole]
11 | 100 to 1000 | CC(C)(c1ccc(Cl)c(Cl)c1)c1cnc(SCc2ccc(F)cc2Cl)n1-c1ccc(F)c(C(N)=O)c1 [5-(2-{[(2-chloro-4-fluorophenyl)methyl]thio}-5-[1-(3,4-dichlorophenyl)-1-methylethyl]-1H-imidazol-1-yl)-2-fluorobenzamide]
12 | 100 to 1000 | CC(C)(c1ccc(Cl)c(Cl)c1)c1cnc(SCc2ccc(F)cc2Cl)n1-c1ccc(F)c(C#N)c1 [5-(2-{[(2-chloro-4-fluorophenyl)methyl]thio}-5-[1-(3,4-dichlorophenyl)-1-methylethyl]-1H-imidazol-1-yl)-2-fluorobenzonitrile]
13 | < 100 | COc1c(Cl)cc(C(C)(C)c2cnc(SCc3ccc(F)c(S(N)(=O)=O)c3)n2-c2ccc(F)cc2)cc1Cl [5-({[5-{1-[3,5-dichloro-4-(methyloxy)phenyl]-1-methylethyl}-1-(4-fluorophenyl)-1H-imidazol-2-yl]thio}methyl)-2-fluorobenzenesulfonamide]
14 | 100 to 1000 | COc1ccc(C(C)(C)c2cnc(SCc3ccc(F)c(C(=O)O)c3)n2-c2ccc(F)cc2)cc1Cl [5-({[5-{1-[3-chloro-4-(methyloxy)phenyl]-1-methylethyl}-1-(4-fluorophenyl)-1H-imidazol-2-yl]thio}methyl)-2-fluorobenzoic acid]
15 | 100 to 1000 | CC(C)(c1ccc2c(c1)OCO2)c1cnc(SCc2ccc(F)cc2Cl)n1-c1ccc(F)cc1 [5-[1-(1,3-benzodioxol-5-yl)-1-methylethyl]-2-{[(2-chloro-4-fluorophenyl)methyl]thio}-1-(4-fluorophenyl)-1H-imidazole]
16 | < 100 | CC(C)(c1ccc2c(c1)OCO2)c1cnc(SCc2c(F)cccc2Cl)n1-c1ccc(F)cc1 [5-[1-(1,3-benzodioxol-5-yl)-1-methylethyl]-2-{[(2-chloro-6-fluorophenyl)methyl]thio}-1-(4-fluorophenyl)-1H-imidazole]

Row | EC50 [nM] | SMILES
17 | 100 to 1000 | CC(C)(c1ccc(Cl)c(Cl)c1)c1cnc(-c2ccc(F)cc2)n1-c1ccc(F)cc1 [5-[1-(3,4-dichlorophenyl)-1-methylethyl]-1,2-bis(4-fluorophenyl)-1H-imidazole]
18 | 100 to 1000 | CC(C)(c1ccc(Cl)c(Cl)c1)c1cnc(S(=O)(=O)Cc2ccc(F)c(C(F)(F)F)c2)n1-c1ccc(F)cc1 [5-[1-(3,4-dichlorophenyl)-1-methylethyl]-1-(4-fluorophenyl)-2-({[4-fluoro-3-(trifluoromethyl)phenyl]methyl}sulfonyl)-1H-imidazole]
19 | < 100 | CC(C)(c1ccc(Cl)c(Cl)c1)c1cnc(SCc2c(F)cc(F)cc2F)n1-c1ccc(F)cc1 [5-[1-(3,4-dichlorophenyl)-1-methylethyl]-1-(4-fluorophenyl)-2-{[(2,4,6-trifluorophenyl)methyl]thio}-1H-imidazole]
20 | 1000 to 10000 | CC(C)(c1ccc(Cl)c(Cl)c1)c1cnc(S(=O)(=O)N[C@H](CO)c2ccccc2)n1-c1ccc(F)cc1 [5-[1-(3,4-dichlorophenyl)-1-methylethyl]-1-(4-fluorophenyl)-N-[(1S)-2-hydroxy-1-phenylethyl]-1H-imidazole-2-sulfonamide]
21 | 100 to 1000 | CC(C)(c1ccc(Cl)c(Cl)c1)c1cnc(S(=O)(=O)NCc2ccc(C(F)(F)F)cc2F)n1-c1ccc(F)cc1 [5-[1-(3,4-dichlorophenyl)-1-methylethyl]-1-(4-fluorophenyl)-N-{[2-fluoro-4-(trifluoromethyl)phenyl]methyl}-1H-imidazole-2-sulfonamide]
22 | 100 to 1000 | CC(C)(c1ccc(Cl)c(Cl)c1)c1cnc(SCc2ccc(F)cc2S(C)(=O)=O)n1-c1ccc(F)cc1 [5-[1-(3,4-dichlorophenyl)-1-methylethyl]-2-({[4-fluoro-2-(methylsulfonyl)phenyl]methyl}thio)-1-(4-fluorophenyl)-1H-imidazole]
23 | 1000 to 10000 | CC(Oc1ccc(Cl)c(Cl)c1)c1ncc(C(C)(C)c2ccc(Cl)c(Cl)c2)n1-c1ccc(F)cc1 (stereo not shown) [5-[1-(3,4-dichlorophenyl)-1-methylethyl]-2-{1-[(3,4-dichlorophenyl)oxy]ethyl}-1-(4-fluorophenyl)-1H-imidazole]
24 | 1000 to 10000 | CC(C)(c1ccc(Cl)c(Cl)c1)c1cnc(S(=O)(=O)Cc2ccc(Cl)cc2Cl)n1-c1ccc(F)cc1 [5-[1-(3,4-dichlorophenyl)-1-methylethyl]-2-{[(2,4-dichlorophenyl)methyl]sulfonyl}-1-(4-fluorophenyl)-1H-imidazole]
25 | 100 to 1000 | CC(C)(c1ccc(Cl)c(Cl)c1)c1cnc(S(=O)(=O)Cc2cc(Cl)ccc2Cl)n1-c1ccc(F)cc1 [5-[1-(3,4-dichlorophenyl)-1-methylethyl]-2-{[(2,5-dichlorophenyl)methyl]sulfonyl}-1-(4-fluorophenyl)-1H-imidazole]
26 | 100 to 1000 | CC(C)(c1ccc(Cl)c(Cl)c1)c1cnc(S(=O)(=O)Cc2c(Cl)cccc2Cl)n1-c1ccc(F)cc1 [5-[1-(3,4-dichlorophenyl)-1-methylethyl]-2-{[(2,6-dichlorophenyl)methyl]sulfonyl}-1-(4-fluorophenyl)-1H-imidazole]
27 | 100 to 1000 | CC(C)(c1ccc(Cl)c(Cl)c1)c1cnc(SCc2c(Cl)cccc2Cl)n1-c1ccc(F)cc1 [5-[1-(3,4-dichlorophenyl)-1-methylethyl]-2-{[(2,6-dichlorophenyl)methyl]thio}-1-(4-fluorophenyl)-1H-imidazole]
28 | 1000 to 10000 | CC(C)(c1ccc(Cl)c(Cl)c1)c1cnc(S(=O)(=O)Cc2ccc(Cl)c(Cl)c2)n1-c1ccc(F)cc1 [5-[1-(3,4-dichlorophenyl)-1-methylethyl]-2-{[(3,4-dichlorophenyl)methyl]sulfonyl}-1-(4-fluorophenyl)-1H-imidazole]
29 | 100 to 1000 | CC(C)(c1ccc(Cl)c(Cl)c1)c1cnc(CSc2ccc(Cl)c(Cl)c2)n1-c1ccc(F)cc1 [5-[1-(3,4-dichlorophenyl)-1-methylethyl]-2-{[(3,4-dichlorophenyl)thio]methyl}-1-(4-fluorophenyl)-1H-imidazole]
30 | 100 to 1000 | CC(C)(c1ccc(Cl)c(Cl)c1)c1cnc(S(=O)(=O)Cc2ccc(F)c(F)c2)n1-c1ccc(F)cc1 [5-[1-(3,4-dichlorophenyl)-1-methylethyl]-2-{[(3,4-difluorophenyl)methyl]sulfonyl}-1-(4-fluorophenyl)-1H-imidazole]
31 | < 100 | CC(C)(c1ccc(Cl)c(F)c1)c1cnc(SCc2c(F)cccc2Cl)n1-c1ccc(F)cc1 [5-[1-(4-chloro-3-fluorophenyl)-1-methylethyl]-2-{[(2-chloro-6-fluorophenyl)methyl]thio}-1-(4-fluorophenyl)-1H-imidazole]
